Laboratory results: ChEMBL document CHEMBL3045481, “Insecticide-induced resurgence of the whitebacked planthopper Sogatella furcifera (Horvath) (Hemiptera: Delphacidae) on rice varieties with different levels of resistance” (Crop Prot, 2011)

Key:
Sogatella furcifera [1] = experiment: Insecticidal activity against Sogatella furcifera on insect-sensitive rice plant ARC6248 assessed as nymphal duration at 0.030% concentration (reference value: 14.48 days); format: functional
Oryza sativa [2] = experiment: Effect on total sugar level in Sogatella furcifera-sensitive Oryza sativa (rice) plant ARC6248 leaf sheath measured per gram of dry weight at 0.030% concentration (reference value: 25.98 mg/g dry wt); format: ADME, organism-based; details: in vivo
Oryza sativa [3] = experiment: Effect on total protein level in Sogatella furcifera-resistanct Oryza sativa (rice) plant PR116 leaf sheath measured per gram of dry weight at 0.030% concentration (reference value: 7.06 mg/g fresh wt); format: ADME, organism-based; details: in vivo
Oryza sativa [4] = experiment: Effect on reducing sugar level in Sogatella furcifera-sensitive Oryza sativa (rice) plant ARC6248 leaf blade measured per gram of dry weight at 0.030% concentration (reference value: 8.37 mg/g dry wt); format: ADME, organism-based; details: in vivo
Oryza sativa [5] = experiment: Effect on total sugar level in Sogatella furcifera-resistanct Oryza sativa (rice) plant PR116 leaf blade measured per gram of dry weight at 0.030% concentration (reference value: 36.16 mg/g dry wt); format: ADME, organism-based; details: in vivo
Oryza sativa [6] = experiment: Effect on total phenols level in Sogatella furcifera-sensitive Oryza sativa (rice) plant ARC6248 leaf sheath measured per gram of dry weight at 0.030% concentration (reference value: 12.75 mg/g dry wt); format: ADME, organism-based; details: in vivo
Sogatella furcifera [7] = experiment: Insecticidal activity against Sogatella furcifera on insect-resistanct rice plant PR116 assessed as nymphal survival at 0.030% concentration (reference value: 70.28%); format: functional
Oryza sativa [8] = experiment: Effect on reducing sugar level in Sogatella furcifera-resistanct Oryza sativa (rice) plant PR116 leaf blade measured per gram of dry weight at 0.030% concentration (reference value: 9.35 mg/g dry wt); format: ADME, organism-based; details: in vivo
Sogatella furcifera [9] = experiment: Insecticidal activity against Sogatella furcifera on insect-resistanct rice plant PR116 assessed as resurgence ratio at 0.030% concentration; format: functional
Oryza sativa [10] = experiment: Effect on total protein level in Sogatella furcifera-sensitive Oryza sativa (rice) plant ARC6248 leaf sheath measured per gram of dry weight at 0.030% concentration (reference value: 6.11 mg/g […]); format: ADME, organism-based; details: in vivo
Sogatella furcifera [11] = experiment: Insecticidal activity against Sogatella furcifera on insect-resistanct rice plant PR116 assessed as growth index at 0.030% concentration (reference value: 6.02%); format: functional
Oryza sativa [12] = experiment: Effect on total protein level in Sogatella furcifera-sensitive Oryza sativa (rice) plant ARC6248 leaf blade measured per gram of dry weight at 0.030% concentration (reference value: 17.67 mg/g […]); format: ADME, organism-based; details: in vivo
Sogatella furcifera [13] = experiment: Insecticidal activity against Sogatella furcifera on insect-sensitive rice plant ARC6248 assessed as growth index at 0.030% concentration (reference value: 2.38%); format: functional
Oryza sativa [14] = experiment: Effect on total amino acids level in Sogatella furcifera-sensitive Oryza sativa (rice) plant ARC6248 leaf blade measured per gram of dry weight at 0.030% concentration (reference value: 3.54 mg/g fresh wt); format: ADME, organism-based; details: in vivo
Oryza sativa [15] = experiment: Effect on total protein level in Sogatella furcifera-resistanct Oryza sativa (rice) plant PR116 leaf blade measured per gram of dry weight at 0.030% concentration (reference value: 21.67 mg/g fresh wt); format: ADME, organism-based; details: in vivo
Oryza sativa [16] = experiment: Effect on total phenols level in Sogatella furcifera-resistanct Oryza sativa (rice) plant PR116 leaf sheath measured per gram of dry weight at 0.030% concentration (reference value: 5.75 mg/g dry wt); format: ADME, organism-based; details: in vivo
Oryza sativa [17] = experiment: Effect on reducing sugar level in Sogatella furcifera-sensitive Oryza sativa (rice) plant ARC6248 leaf sheath measured per gram of dry weight at 0.030% concentration (reference value: 6.41 mg/g dry wt); format: ADME, organism-based; details: in vivo
Oryza sativa [18] = experiment: Effect on total phenols level in Sogatella furcifera-sensitive Oryza sativa (rice) plant ARC6248 leaf blade measured per gram of dry weight at 0.030% concentration (reference value: 17.08 mg/g dry wt); format: ADME, organism-based; details: in vivo
Sogatella furcifera [19] = experiment: Insecticidal activity against Sogatella furcifera on insect-sensitive rice plant ARC6248 assessed as resurgence ratio at 0.030% concentration; format: functional
Oryza sativa [20] = experiment: Effect on reducing sugar level in Sogatella furcifera-resistanct Oryza sativa (rice) plant PR116 leaf sheath measured per gram of dry weight at 0.030% concentration (reference value: 7.50 mg/g dry wt); format: ADME, organism-based; details: in vivo
Oryza sativa [21] = experiment: Effect on total amino acids level in Sogatella furcifera-resistanct Oryza sativa (rice) plant PR116 leaf blade measured per gram of dry weight at 0.030% concentration (reference value: 3.91 mg/g […]); format: ADME, organism-based; details: in vivo
Oryza sativa [22] = experiment: Effect on total phenols level in Sogatella furcifera-resistanct Oryza sativa (rice) plant PR116 leaf blade measured per gram of dry weight at 0.030% concentration (reference value: 8.08 mg/g dry wt); format: ADME, organism-based; details: in vivo
Sogatella furcifera [23] = experiment: Insecticidal activity against Sogatella furcifera on insect-resistanct rice plant PR116 assessed as nymphal duration at 0.030% concentration (reference value: 11.75 days); format: functional
Oryza sativa [24] = experiment: Effect on total amino acids level in Sogatella furcifera-resistanct Oryza sativa (rice) plant PR116 leaf sheath measured per gram of dry weight at 0.030% concentration (reference value: 2.58 mg/g […]); format: ADME, organism-based; details: in vivo
Oryza sativa [25] = experiment: Effect on total sugar level in Sogatella furcifera-sensitive Oryza sativa (rice) plant ARC6248 leaf blade measured per gram of dry weight at 0.030% concentration (reference value: 34.05 mg/g dry wt); format: ADME, organism-based; details: in vivo
Sogatella furcifera [26] = experiment: Insecticidal activity against Sogatella furcifera on insect-sensitive rice plant ARC6248 assessed as nymphal survival at 0.030% concentration (reference value: 34.17%); format: functional
Oryza sativa [27] = experiment: Effect on total sugar level in Sogatella furcifera-resistanct Oryza sativa (rice) plant PR116 leaf sheath measured per gram of dry weight at 0.030% concentration (reference value: 30.27 mg/g dry wt); format: ADME, organism-based; details: in vivo
Oryza sativa [28] = experiment: Effect on total amino acids level in Sogatella furcifera-sensitive Oryza sativa (rice) plant ARC6248 leaf sheath measured per gram of dry weight at 0.030% concentration (reference value: 2.11 mg/g fresh wt); format: ADME, organism-based; details: in vivo

For `COP(=S)(OC)Oc1ccc([N+](=O)[O-])cc1` [METHYL PARATHIONE], the Time (Sogatella furcifera [1]) was 14.35 days, the Activity (Oryza sativa [2]) was 33.21 mg and the Activity (Oryza sativa [3]) was 8.67 mg. It also gave an Activity (Oryza sativa [4]) of 10.54 mg, an Activity (Oryza sativa [5]) of 38.3 mg and an Activity (Oryza sativa [6]) of 11.08 mg. The Survival (Sogatella furcifera [7]) was 77.78%, the Activity (Oryza sativa [8]) was 14.89 mg and the Ratio (Sogatella furcifera [9]) was 1.69. The Activity (Oryza sativa [10]) was 8.33 mg, the “growth inhibition (GI)” value (Sogatella furcifera [11]) was 6.76% and the Activity (Oryza sativa [12]) was 21.17 mg. The “growth inhibition (GI)” value (Sogatella furcifera [13]) was 2.87%, the Activity (Oryza sativa [14]) was 4.04 mg and the Activity (Oryza sativa [15]) was 23.33 mg. For the same compound, the Activity (Oryza sativa [16]) was 5.58 mg, the Activity (Oryza sativa [17]) was 9.89 mg and the Activity (Oryza sativa [18]) was 16.08 mg. It also gave a Ratio (Sogatella furcifera [19]) of 1.26, an Activity (Oryza sativa [20]) of 11.63 mg and an Activity (Oryza sativa [21]) of 4.53 mg. The Activity (Oryza sativa [22]) was 7.5 mg, the Time (Sogatella furcifera [23]) was 11.57 days and the Activity (Oryza sativa [24]) was 3.64 mg. It also gave an Activity (Oryza sativa [25]) of 39.37 mg, a Survival (Sogatella furcifera [26]) of 40.83% and an Activity (Oryza sativa [27]) of 33.48 mg. For the same compound, the Activity (Oryza sativa [28]) was 2.86 mg.
